Counter-ions that a name gives are not always drawn.
Target: T1, human vasopressin V1b receptor (Homo sapiens, UniProt P47901)
T1 construct: expressed in transfected cells; host or cells: CHO-K1 (cell line hV1b_3H2_CHO), membrane preparation
T1 sequence (P47901 1-424): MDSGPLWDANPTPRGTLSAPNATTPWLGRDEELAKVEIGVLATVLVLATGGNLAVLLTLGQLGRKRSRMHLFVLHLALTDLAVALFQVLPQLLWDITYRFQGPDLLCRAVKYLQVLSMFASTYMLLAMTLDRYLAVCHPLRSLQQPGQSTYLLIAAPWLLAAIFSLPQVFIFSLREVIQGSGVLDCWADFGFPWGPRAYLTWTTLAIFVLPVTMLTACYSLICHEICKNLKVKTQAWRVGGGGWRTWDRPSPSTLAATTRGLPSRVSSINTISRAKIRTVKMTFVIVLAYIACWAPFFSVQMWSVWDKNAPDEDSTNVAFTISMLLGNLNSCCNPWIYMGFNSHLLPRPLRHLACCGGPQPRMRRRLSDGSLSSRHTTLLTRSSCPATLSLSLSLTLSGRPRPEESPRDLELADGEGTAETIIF
Assay: Vasopressin V1b receptor binding test
Settings: membranes of CHO-K1 cells, displacement of 1.5 nM 3H-AVP
Method: • Vasopressin V1b Receptor Binding Test: • Substances:
The test substances were dissolved at a concentration of 10^−2 M in DMSO and diluted further in DMSO to 5×10^−4 M to 5×10^−9 M. These DMSO solutions were diluted 1:10 with test buffer. The concentration of substance was again diluted 1:5 in the test preparation.
The membrane pellet was homogenized and centrifuged again as described, and then taken up in 50 mM Tris-HCl, pH 7.4, homogenized and, frozen in aliquots, stored at −190° C. in liquid nitrogen.
The incubation buffer was: 50 mM Tris, 10 mM MgCl2, 0.1% BSA, pH 7.4. […] The nonspecific binding was determined with 1 μM AVP (Bachem #H1780). All determinations were performed in triplicate. After incubation (60 minutes at room temperature), the free radioligand was filtered off by vacuum filtration (Skatron cell harvester 7000) on Whatman GF/B glass-fibre filter mats and the filters were transferred to scintillation vessels. Liquid scintillation measurement was performed in a Tricarb instrument, Model 2000 or 2200CA (Packard). Conversion of the measured cpm to dpm was performed with the aid of a standard quench series.
The binding parameters were calculated by nonlinear regression in SAS.
For the compounds according to the invention, the affinities for the human vasopressin receptor V1b were measured according to the above test and the affinity constant (Ki) was determined.

| SMILES | Ki [nM] |
| --- | --- |
| COc1ccc(S(=O)(=O)N2C(=O)C(c3ccccc3OC)(N3CCN(c4ccncc4)CC3)c3ccc(C)cc32)c(OC)c1 (centres unmarked) [Example 23, 1-(2,4-Dimethoxy-benzenesulphonyl)-3-(2-methoxyphenyl)-6-methyl-3-(4-pyridin-4-yl-piperazin-1-yl)-1,3-dihydro-indol-2-one] | 50 to 500 |
| COc1ccc(S(=O)(=O)N2C(=O)C(c3cc(CN(C)C)ccc3OC)(N3CCN(c4ccncc4)CC3)c3cc(Cl)ccc32)c(OC)c1 (centres unmarked) [Example 25, 5-Chloro-1-(2,4-dimethoxy-benzenesulphonyl)-3-(5-dimethylaminomethyl-2-methoxyphenyl)-3-(4-pyridin-4-yl-piperazin-1-yl)-1,3-dihydro-indol-2-one] | 50 to 500 |
| COc1ccc(S(=O)(=O)N2C(=O)C(c3ccccc3OC)(N3CCN(c4ccncc4)CC3)c3cc(C#N)ccc32)c(OC)c1 (centres unmarked) [Example 26, 5-Cyano-1-(2,4-dimethoxy-benzenesulphonyl)-3-(2-methoxyphenyl)-3-(4-pyridin-4-yl-piperazin-1-yl)-2,3-dihydro-1H-indol-2-one] | 50 to 500 |
| COc1ccc(S(=O)(=O)N2C(=O)C(c3ccccc3OC)(N3C[C@H]4C[C@@H]3CN4c3ccncc3)c3cc(Cl)ccc32)c(OC)c1 (stereo partly drawn) [Example 27, 5-Chloro-1-(2,4-dimethoxy-benzenesulphonyl)-3-(2-methoxyphenyl)-3-((1R,4R)-5-pyridin-4-yl-2,5-diaza-bicyclo[2.2.1]hept-2-yl)-1,3-dihydro-indol-2-one] | 50 to 500 |
| COc1ccc(C2(N3CCN(c4ccncc4)CC3)C(=O)N(S(=O)(=O)c3ccc(OC)cc3OC)c3ccc(Cl)cc32)c(OC)c1 (centres unmarked) [Example 30, 5-Chloro-1-(2,4-dimethoxy-benzenesulphonyl)-3-(2,4-dimethoxyphenyl)-3-(4-pyridin-4-yl-piperazin-1-yl)-1,3-dihydro-indol-2-one, HCl salt] | < 50 |
| COc1ccc(S(=O)(=O)N2C(=O)C(c3cccc(OC)c3OC)(N3CCN(c4ccncc4)CC3)c3cc(Cl)ccc32)c(OC)c1 (centres unmarked) [Example 31, 5-Chloro-1-(2,4-dimethoxy-benzenesulphonyl)-3-(2,3-dimethoxyphenyl)-3-(4-pyridin-4-yl-piperazin-1-yl)-1,3-dihydro-indol-2-one, HCl salt] | < 50 |
| COCc1ccccc1C1(N2CCN(c3ccncc3)CC2)C(=O)N(S(=O)(=O)c2ccc(OC)cc2OC)c2ccc(Cl)cc21 (centres unmarked) [Example 32, 5-Chloro-1-(2,4-dimethoxy-benzenesulphonyl)-3-(2-methoxymethylphenyl)-3-(4-pyridin-4-yl-piperazin-1-yl)-1,3-dihydro-indol-2-one] | 50 to 500 |
| CCOc1ccccc1C1(N2CCN(c3ccnc(C)c3)CC2)C(=O)N(S(=O)(=O)c2ccc(OC)cc2OC)c2ccc(C#N)cc21 (centres unmarked) [Example 35, 5-Cyano-1-(2,4-dimethoxy-benzenesulphonyl)-3-(2-ethoxyphenyl)-3-[4-(2-methyl-pyridin-4-yl)-piperazin-1-yl]-2,3-dihydro-1H-indol-2-one] | 50 to 500 |
| CCOc1ccccc1C1(N2CCN(c3ccncc3)CC2)C(=O)N(S(=O)(=O)c2ccc(NC(C)=O)cc2)c2ccc(C#N)cc21 (centres unmarked) [Example 46, N-{4-[5-Cyano-3-(2-ethoxyphenyl)-2-oxo-3-(4-pyridin-4-yl-piperazin-1-yl)-2,3-dihydro-indole-1-sulphonyl]-phenyl}-acetamide] | 50 to 500 |
| CCOc1ccccc1C1(N2CCN(c3ccncc3)CC2)C(=O)N(S(=O)(=O)c2cccc(N)c2)c2ccc(C#N)cc21 (centres unmarked) [Example 48, 5-Cyano-1-(3-amino-benzenesulphonyl)-3-(2-ethoxyphenyl)-3-(4-pyridin-4-yl-piperazin-1-yl)-2,3-dihydro-1H-indol-2-one] | 50 to 500 |
| CCOc1ccc(OC)cc1C1(N2CCN(c3ccnc(C)c3)CC2)C(=O)N(S(=O)(=O)c2ccc(OC)cc2OC)c2ccc(C#N)cc21 (centres unmarked) [Example 50, 5-Cyano-1-(2,4-dimethoxy-benzenesulphonyl)-3-(2-ethoxy-5-methoxyphenyl)-3-[4-(2-methyl-pyridin-4-yl)-piperazin-1-yl]-2,3-dihydro-1H-indol-2-one] | < 50 |
| CCOc1cc(F)ccc1C1(N2CCN(c3ccncc3)CC2)C(=O)N(S(=O)(=O)c2ccc(OC)cc2OC)c2ccc(C#N)cc21 (centres unmarked) [Example 57, 5-Cyano-1-(2,4-dimethoxy-benzenesulphonyl)-3-(2-ethoxy-4-fluorophenyl)-3-(4-pyridin-4-yl-piperazin-1-yl)-2,3-dihydro-1H-indol-2-one] | < 50 |
| CCOc1ccc(OC)cc1C1(N2CC3CN(c4ccncc4)CC3C2)C(=O)N(S(=O)(=O)c2ccc(OC)cc2OC)c2ccc(C#N)cc21 (centres unmarked) [Example 58, 5-Cyano-1-(2,4-dimethoxy-benzenesulphonyl)-3-(2-ethoxy-5-methoxyphenyl)-3-(5-pyridin-4-yl-hexahydro-pyrrolo[3,4-c]pyrrol-2-yl)-2,3-dihydro-1H-indol-2-one] | < 50 |
| COc1ccc(S(=O)(=O)N2C(=O)C(c3cc(OC)ccc3OC)(N3CCN(c4ccncc4)CC3)c3cc(C#N)ccc32)c(OC)c1 (centres unmarked) [Example 59, 5-Cyano-1-(2,4-dimethoxy-benzenesulphonyl)-3-(2,5-dimethoxyphenyl)-3-(4-pyridin-4-yl-piperazin-1-yl)-2,3-dihydro-1H-indol-2-one] | < 50 |
| CCOc1ccc(OC)cc1C1(N2CCN(c3ccncc3)CC2)C(=O)N(S(=O)(=O)c2ccc(C#N)cc2)c2ccc(C#N)cc21 (centres unmarked) [Example 61, 5-Cyano-1-(4-cyano-benzenesulphonyl)-3-(2-ethoxy-5-methoxyphenyl)-3-(4-pyridin-4-yl-piperazin-1-yl)-2,3-dihydro-1H-indol-2-one] | 50 to 500 |

Other lines, results leading:

| Ki [nM] | SMILES |
| --- | --- |
| < 50 | COc1ccc(S(=O)(=O)N2C(=O)C(c3ccccc3Cl)(N3CCN(c4ccncc4)CC3)c3cc(Cl)ccc32)c(OC)c1 (centres unmarked) [Example 24, 5-Chloro-3-(2-chloro-phenyl)-1-(2,4-dimethoxy-benzenesulphonyl)-3-(4-pyridin-4-yl-piperazin-1-yl)-1,3-dihydro-indol-2-one] |
| < 50 | COc1ccc(S(=O)(=O)N2C(=O)C(c3cc(OC)ccc3OC)(N3CCN(c4ccncc4)CC3)c3cc(OC)ccc32)c(OC)c1 (centres unmarked) [Example 28, 1-(2,4-Dimethoxy-benzenesulphonyl)-3-(2,5-dimethoxyphenyl)-5-methoxy-3-(4-pyridin-4-yl-piperazin-1-yl)-1,3-dihydro-indol-2-one] |
| 50 to 500 | CCOc1ccccc1C1(N2CCN(c3ccncc3)CC2)C(=O)N(S(=O)(=O)c2ccc(OC)cc2OC)c2ccc(-c3ccco3)cc21 (centres unmarked) [Example 47, 1-(2,4-Dimethoxy-benzenesulphonyl)-3-(2-ethoxyphenyl)-5-furan-2-yl-3-(4-pyridin-4-yl-piperazin-1-yl)-1,3-dihydro-indol-2-one] |
| < 50 | CCOc1ccc(OC)cc1C1(N2C[C@@H]3C[C@H]2CN3c2ccncc2)C(=O)N(S(=O)(=O)c2ccc(OC)cc2OC)c2ccc(C#N)cc21 (stereo partly drawn) [Example 52, 5-Cyano-1-(2,4-dimethoxy-benzenesulphonyl)-3-(2-ethoxy-5-methoxyphenyl)-3-((1S,4S)-5-pyridin-4-yl-2,5-diaza-bicyclo[2.2.1]hept-2-yl)-2,3-dihydro-1H-indol-2-one] |
| 50 to 500 | COc1ccc(S(=O)(=O)N2C(=O)C(c3cc(OC)ccc3OC(C)C)(N3CCN(c4ccncc4)CC3)c3cc(C#N)ccc32)c(OC)c1 (centres unmarked) [Example 53, 5-Cyano-1-(2,4-dimethoxy-benzenesulphonyl)-3-(2-isopropoxy-5-methoxyphenyl)-3-(4-pyridin-4-yl-piperazin-1-yl)-2,3-dihydro-1H-indol-2-one] |
| < 50 | CCOc1ccc(OC)cc1C1(N2CCN(c3ccncc3)CC2)C(=O)N(S(=O)(=O)c2ccc(OC)cc2OC)c2ccc(C#N)cc21 (centres unmarked) [Example 55, 5-Cyano-1-(2,4-dimethoxy-benzenesulphonyl)-3-(2-ethoxy-5-methoxyphenyl)-3-(4-pyridin-4-yl-piperazin-1-yl)-2,3-dihydro-1H-indol-2-one] |
| 50 to 500 | CCOc1ccccc1C1(N2CCCN(c3ccncc3)CC2)C(=O)N(S(=O)(=O)c2ccc(OC)cc2OC)c2ccc(C#N)cc21 (centres unmarked) [Example 56, 5-Cyano-1-(2,4-dimethoxy-benzenesulphonyl)-3-(2-ethoxyphenyl)-3-(4-pyridin-4-yl-[1.4]diazepan-1-yl)-2,3-dihydro-1H-indol-2-one] |
| < 50 | CCOc1ccc(OC)cc1C1(N2CCCN(c3ccncc3)CC2)C(=O)N(S(=O)(=O)c2ccc(OC)cc2OC)c2ccc(C#N)cc21 (centres unmarked) [Example 60, 5-Cyano-1-(2,4-dimethoxy-benzenesulphonyl)-3-(2-ethoxy-5-methoxyphenyl)-3-(4-pyridin-4-yl-[1.4]diazepan-1-yl)-2,3-dihydro-1H-indol-2-one] |

Reference: patent publication US8431567B2 (Abbott GmbH & Co. KG, priority 2006, dated 2013)
